Measurements as given in patent US20140142155A1, “METHOD OF TREATING THROMBOCYTOPENIA” (GlaxoSmithKline LLC, priority 2008, published 2014).
“Also recorded” adds a separate entry of the source. Read-outs that look alike come from different tables or passages of the source.

Key:
rats [1] = test: Platelet production in animals; assay type: in vivo, rat
p-glycoprotein (Pgp) = p-glycoprotein (Pgp) (Homo sapiens, UniProt P08183); test: Transporter substrate assessment; assay type: in vitro ADME
rats [2] = test: Fertility studies in rats; assay type: in vivo, rat
UGT1A1 [3] = biological target: T1, UGT1A1 (Homo sapiens, UniProt P22309); test: In vitro glucuronidation; assay type: in vitro ADME
T1 sequence (P22309 26-533): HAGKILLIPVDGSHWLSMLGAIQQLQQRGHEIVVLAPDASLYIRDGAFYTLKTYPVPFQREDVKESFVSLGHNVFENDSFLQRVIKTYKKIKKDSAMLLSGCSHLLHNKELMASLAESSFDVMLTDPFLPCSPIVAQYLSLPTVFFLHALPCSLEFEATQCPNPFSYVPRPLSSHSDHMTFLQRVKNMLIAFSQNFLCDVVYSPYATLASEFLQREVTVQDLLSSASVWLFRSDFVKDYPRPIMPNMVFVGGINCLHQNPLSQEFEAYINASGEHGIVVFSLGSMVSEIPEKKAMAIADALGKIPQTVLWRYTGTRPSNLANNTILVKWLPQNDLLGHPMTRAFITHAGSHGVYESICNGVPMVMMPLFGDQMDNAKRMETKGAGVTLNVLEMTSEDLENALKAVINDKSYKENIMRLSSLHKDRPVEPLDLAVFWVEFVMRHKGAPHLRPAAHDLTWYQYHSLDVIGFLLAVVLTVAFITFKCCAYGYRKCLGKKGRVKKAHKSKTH

CYP1A2 = CYP1A2 (Homo sapiens, UniProt P05177); test: In vitro oxidative metabolism; assay type: in vitro ADME
CYP1A2, sequence (P05177 whole entry): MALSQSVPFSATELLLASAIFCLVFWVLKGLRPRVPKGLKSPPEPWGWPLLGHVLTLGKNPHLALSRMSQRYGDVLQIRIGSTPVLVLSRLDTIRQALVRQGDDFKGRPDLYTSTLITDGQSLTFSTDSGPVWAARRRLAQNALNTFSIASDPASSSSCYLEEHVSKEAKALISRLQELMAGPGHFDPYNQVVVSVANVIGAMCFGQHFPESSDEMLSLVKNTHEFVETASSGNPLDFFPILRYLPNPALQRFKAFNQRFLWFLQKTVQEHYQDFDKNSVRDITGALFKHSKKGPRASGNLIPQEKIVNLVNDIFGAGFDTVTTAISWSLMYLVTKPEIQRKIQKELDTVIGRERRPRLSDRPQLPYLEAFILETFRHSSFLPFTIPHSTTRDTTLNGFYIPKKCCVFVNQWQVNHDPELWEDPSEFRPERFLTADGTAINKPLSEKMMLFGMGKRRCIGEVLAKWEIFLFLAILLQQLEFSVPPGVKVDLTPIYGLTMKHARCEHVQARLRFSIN

CYP2C9 = CYP2C9 (Homo sapiens, UniProt P11712); test: In vitro CYP inhibition (diclofenac probe); assay type: in vitro ADME; conditions: diclofenac probe substrate
CYP2C9, sequence (P11712 whole entry): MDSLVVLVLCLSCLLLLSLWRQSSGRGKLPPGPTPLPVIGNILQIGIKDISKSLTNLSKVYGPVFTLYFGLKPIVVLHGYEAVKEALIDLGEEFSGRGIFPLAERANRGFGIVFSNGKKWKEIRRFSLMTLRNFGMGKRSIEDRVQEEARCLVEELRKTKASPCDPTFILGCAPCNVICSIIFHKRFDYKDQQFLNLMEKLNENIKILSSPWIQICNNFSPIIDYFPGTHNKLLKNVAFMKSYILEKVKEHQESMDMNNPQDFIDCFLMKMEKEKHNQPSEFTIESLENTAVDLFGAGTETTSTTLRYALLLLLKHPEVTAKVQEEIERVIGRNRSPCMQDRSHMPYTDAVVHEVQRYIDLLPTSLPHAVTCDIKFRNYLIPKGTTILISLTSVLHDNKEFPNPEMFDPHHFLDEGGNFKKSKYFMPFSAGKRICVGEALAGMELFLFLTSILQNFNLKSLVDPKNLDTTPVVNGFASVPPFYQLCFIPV
Description: (§1) Probe substrates for CYP2C8 were not evaluated in this study.

pregnant rabbits = conditions: oral 30, 80, or 150 mg/kg/day (0.1, 0.3, 0.6 times human clinical exposure, AUC)
dogs [4] = conditions: dog, in vivo
mice [5] = test: In vivo cutaneous phototoxicity; design: species or system mouse; conditions: up to 11 times human clinical exposure (AUC)
rats [6] = test: In vivo micronucleus assay; conditions: rat micronucleus, 11 times human clinical exposure (Cmax)
mouse lymphoma = test: In vitro mouse lymphoma assay; assay type: cell-based
CYP2C8 [7] = biological target: T2, CYP2C8 (Homo sapiens, UniProt P10632); test: In vitro CYP inhibition (paclitaxel probe); assay type: in vitro ADME; conditions: paclitaxel probe substrate
T2 sequence (P10632 whole entry): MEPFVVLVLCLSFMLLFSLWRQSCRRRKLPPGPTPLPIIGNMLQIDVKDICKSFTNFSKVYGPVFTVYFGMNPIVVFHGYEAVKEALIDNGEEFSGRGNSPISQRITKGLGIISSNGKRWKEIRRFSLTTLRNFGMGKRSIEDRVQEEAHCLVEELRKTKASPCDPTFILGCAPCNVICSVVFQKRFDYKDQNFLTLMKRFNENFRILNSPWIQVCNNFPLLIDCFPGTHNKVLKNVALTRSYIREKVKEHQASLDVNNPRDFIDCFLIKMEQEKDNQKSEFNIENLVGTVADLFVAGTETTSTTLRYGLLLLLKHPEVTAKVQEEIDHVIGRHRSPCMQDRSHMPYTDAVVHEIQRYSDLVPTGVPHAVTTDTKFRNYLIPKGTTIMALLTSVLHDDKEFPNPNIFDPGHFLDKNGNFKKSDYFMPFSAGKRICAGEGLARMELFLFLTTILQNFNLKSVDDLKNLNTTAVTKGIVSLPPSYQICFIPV
Description: as §1

UGT1A6 = UGT1A6 (Homo sapiens, UniProt P19224); test: In vitro UGT inhibition; assay type: in vitro ADME
UGT1A6, sequence (P19224 27-532): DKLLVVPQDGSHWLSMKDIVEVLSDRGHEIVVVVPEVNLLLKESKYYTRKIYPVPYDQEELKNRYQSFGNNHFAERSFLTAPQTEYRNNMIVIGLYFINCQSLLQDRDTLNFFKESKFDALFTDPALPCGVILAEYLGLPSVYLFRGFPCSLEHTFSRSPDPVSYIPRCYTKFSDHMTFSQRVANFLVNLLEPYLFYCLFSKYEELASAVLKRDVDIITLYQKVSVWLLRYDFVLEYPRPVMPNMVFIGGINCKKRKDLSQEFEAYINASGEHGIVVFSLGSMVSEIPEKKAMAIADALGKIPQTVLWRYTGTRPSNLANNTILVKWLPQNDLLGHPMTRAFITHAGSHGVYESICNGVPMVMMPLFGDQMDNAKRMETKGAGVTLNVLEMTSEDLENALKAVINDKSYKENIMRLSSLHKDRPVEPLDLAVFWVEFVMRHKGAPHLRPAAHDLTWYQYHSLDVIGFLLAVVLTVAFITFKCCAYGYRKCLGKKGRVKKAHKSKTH
Description: (§2) Monitor patients closely for signs or symptoms of excessive exposure to these drugs when concomitantly administered with Promacta®.

UGT1A9 = UGT1A9 (Homo sapiens, UniProt O60656); test: In vitro UGT inhibition; assay type: in vitro ADME
UGT1A9, sequence (O60656 26-530): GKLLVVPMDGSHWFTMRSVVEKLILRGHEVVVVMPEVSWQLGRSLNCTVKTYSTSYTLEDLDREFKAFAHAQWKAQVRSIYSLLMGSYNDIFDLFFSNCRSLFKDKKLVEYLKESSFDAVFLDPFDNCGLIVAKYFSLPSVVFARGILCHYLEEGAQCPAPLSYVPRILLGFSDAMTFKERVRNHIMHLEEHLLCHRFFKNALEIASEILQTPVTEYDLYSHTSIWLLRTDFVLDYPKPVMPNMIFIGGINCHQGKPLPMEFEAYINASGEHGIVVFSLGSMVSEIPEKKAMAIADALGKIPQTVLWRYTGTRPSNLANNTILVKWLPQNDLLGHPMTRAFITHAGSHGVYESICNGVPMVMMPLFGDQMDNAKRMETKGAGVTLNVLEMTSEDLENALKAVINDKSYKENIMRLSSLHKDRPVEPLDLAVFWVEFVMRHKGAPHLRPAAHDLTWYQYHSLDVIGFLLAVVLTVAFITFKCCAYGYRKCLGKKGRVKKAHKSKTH
Description: as §2

UGT2B15 = UGT2B15 (Homo sapiens, UniProt P54855); test: In vitro UGT inhibition; assay type: in vitro ADME
Description: as §2

UGT1A3 [8] = biological target: T3, UGT1A3 (Homo sapiens, UniProt P35503); test: In vitro UGT inhibition; assay type: in vitro ADME
T3 sequence (P35503 29-534): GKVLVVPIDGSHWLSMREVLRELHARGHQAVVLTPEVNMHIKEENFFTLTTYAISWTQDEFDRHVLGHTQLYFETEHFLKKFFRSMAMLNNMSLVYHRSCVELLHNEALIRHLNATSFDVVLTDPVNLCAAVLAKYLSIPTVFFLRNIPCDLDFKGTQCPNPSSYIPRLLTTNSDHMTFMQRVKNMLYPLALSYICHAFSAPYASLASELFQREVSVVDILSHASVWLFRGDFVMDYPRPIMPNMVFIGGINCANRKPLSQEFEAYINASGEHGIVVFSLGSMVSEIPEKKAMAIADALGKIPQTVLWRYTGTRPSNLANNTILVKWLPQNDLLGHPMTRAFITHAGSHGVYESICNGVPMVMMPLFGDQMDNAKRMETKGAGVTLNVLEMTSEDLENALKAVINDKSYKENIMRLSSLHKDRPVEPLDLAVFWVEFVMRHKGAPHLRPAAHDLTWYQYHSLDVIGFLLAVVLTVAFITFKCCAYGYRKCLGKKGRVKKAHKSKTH
Description: as §2

UGT1A4 = UGT1A4 (Homo sapiens, UniProt P22310); test: In vitro UGT inhibition; assay type: in vitro ADME
Description: as §2

UGT1A1 [9] = biological target: T1, UGT1A1; test: In vitro UGT inhibition; assay type: in vitro ADME
Description: as §2

UGT2B7 = UGT2B7 (Homo sapiens, UniProt P16662); test: In vitro UGT inhibition; assay type: in vitro ADME
UGT2B7, sequence (P16662 24-529): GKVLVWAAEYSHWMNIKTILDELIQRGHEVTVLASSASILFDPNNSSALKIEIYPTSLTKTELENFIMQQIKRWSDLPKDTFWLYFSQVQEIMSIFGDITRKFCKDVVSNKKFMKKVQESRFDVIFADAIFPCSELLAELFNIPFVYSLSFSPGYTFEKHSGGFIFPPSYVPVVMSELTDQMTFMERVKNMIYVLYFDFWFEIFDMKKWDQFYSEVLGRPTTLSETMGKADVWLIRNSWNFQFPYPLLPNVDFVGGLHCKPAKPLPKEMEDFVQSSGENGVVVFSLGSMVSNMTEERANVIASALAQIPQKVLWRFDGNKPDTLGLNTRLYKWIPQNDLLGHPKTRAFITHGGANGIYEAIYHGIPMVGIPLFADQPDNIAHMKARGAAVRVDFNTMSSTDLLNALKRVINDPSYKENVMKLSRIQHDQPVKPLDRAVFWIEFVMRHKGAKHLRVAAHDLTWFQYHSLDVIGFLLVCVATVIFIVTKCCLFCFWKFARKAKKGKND
Description: as §2

[10] = In vitro phototoxicity and photoclastogenicity; assay type: cell-based
female rats = test: Early embryonic development study; assay type: in vivo, rat; conditions: highest dose, 7 times human clinical exposure (AUC); maternally toxic
rats [11] = conditions: rat, in vivo
mice [12] = conditions: mouse, in vivo
dogs [13] = test: Platelet production in animals; assay type: in vivo, dog
mice [14] = conditions: mouse, in vivo; remark: listed apart in the source
OATP1B1 [15] = biological target: T4, OATP1B1 (Homo sapiens, UniProt Q9Y6L6); test: Transporter substrate assessment; assay type: in vitro ADME
T4 sequence (Q9Y6L6 whole entry): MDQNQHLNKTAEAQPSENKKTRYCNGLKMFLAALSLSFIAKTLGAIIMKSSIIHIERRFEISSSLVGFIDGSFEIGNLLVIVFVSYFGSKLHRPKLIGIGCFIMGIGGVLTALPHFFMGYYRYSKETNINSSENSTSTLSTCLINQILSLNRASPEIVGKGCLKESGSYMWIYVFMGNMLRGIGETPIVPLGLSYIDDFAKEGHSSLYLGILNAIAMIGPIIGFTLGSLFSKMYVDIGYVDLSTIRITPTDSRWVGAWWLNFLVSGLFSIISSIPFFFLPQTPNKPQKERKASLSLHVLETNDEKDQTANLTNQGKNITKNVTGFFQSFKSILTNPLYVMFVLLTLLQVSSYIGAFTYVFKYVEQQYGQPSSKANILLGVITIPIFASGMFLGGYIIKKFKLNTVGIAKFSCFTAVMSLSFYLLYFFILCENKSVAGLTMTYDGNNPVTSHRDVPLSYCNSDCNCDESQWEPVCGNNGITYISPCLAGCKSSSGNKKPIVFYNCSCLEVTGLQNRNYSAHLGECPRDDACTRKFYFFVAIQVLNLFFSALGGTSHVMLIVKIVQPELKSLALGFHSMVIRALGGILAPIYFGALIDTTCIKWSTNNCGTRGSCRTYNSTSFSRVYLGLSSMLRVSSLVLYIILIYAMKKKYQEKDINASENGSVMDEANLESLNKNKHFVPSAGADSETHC

rats [16] = test: In vivo unscheduled DNA synthesis assay; conditions: rat unscheduled DNA synthesis, 11 times human clinical exposure (Cmax)
CYP2C8 [17] = biological target: T2, CYP2C8; test: In vitro oxidative metabolism; assay type: in vitro ADME
UGT1A3 [18] = biological target: T3, UGT1A3; test: In vitro glucuronidation; assay type: in vitro ADME
human plasma proteins = test: In vitro plasma protein binding; assay type: in vitro ADME
pregnant rats (F0) = test: Pre- and post-natal developmental toxicity study; assay type: in vivo, rat
[19] = Pharmacokinetics by race and gender; assay type: in vivo, human
bacterial = test: Bacterial mutation assay
pregnant rats = conditions: rat, in vivo
mice [20] = test: 2-year oral carcinogenicity study in mice; conditions: 2-year study, lowest dose (25 mg/kg/day)
OATP1B1 [21] = biological target: T4, OATP1B1; test: In vitro OATP1B1 inhibition; assay type: in vitro ADME
[22] = Food effect open-label randomized crossover study; assay type: in vivo, human; conditions: standard high-fat breakfast
Description: The calcium content of this meal may have also contributed to this decrease in exposure.

CC1=NN(c2ccc(C)c(C)c2)C(=O)/C1=N\Nc1cccc(-c2cccc(C(=O)O)c2)c1O [eltrombopag, 3′-[(2Z)-[1-(3,4-dimethylphenyl)-1,5-dihydro-3-methyl-5-oxo-4H-pyrazol-4-ylidene]hydrazino]-2′-hydroxy-[1,1′-biphenyl]-3-carboxylic acid]
platelet production (rats [1]): does not stimulate platelet production | substrate for p-glycoprotein (Pgp) (p-glycoprotein (Pgp)): not a substrate | female fertility (rats [2]; doses up to 20 mg/kg/day (2 times human clinical exposure, AUC)): did not affect female fertility | male fertility (rats [2]; doses up to 40 mg/kg/day, highest dose tested (5 times human clinical exposure, AUC)): did not affect male fertility | role of UGT1A1 in glucuronidation (UGT1A1 [3]): responsible | role of CYP1A2 in oxidative metabolism (CYP1A2): responsible; also recorded: involved | inhibition of CYP2C9 (CYP2C9): inhibitor | fetotoxicity, embryolethality, or teratogenicity (pregnant rabbits): no evidence of fetotoxicity, embryolethality, or teratogenicity | cataracts (dogs [4]): Cataracts were not observed | liver finding (dogs [4]): hepatocellular hypertrophy | renal tubular toxicity (dogs [4]): Renal tubular toxicity was not observed | in vivo cutaneous phototoxicity (mice [5]): no evidence | mutagenicity/clastogenicity (rats [6]): not mutagenic or clastogenic | mouse lymphoma assay result (mouse lymphoma; in vitro): marginally positive | increase in mutation frequency (mouse lymphoma; in vitro mouse lymphoma assay): < 3 fold | inhibition of CYP2C8 (CYP2C8 [7]): inhibitor | inhibition of UGT1A6 (UGT1A6): inhibitor | inhibition of UGT1A9 (UGT1A9): inhibitor | inhibition of UGT2B15 (UGT2B15): inhibitor | inhibition of UGT1A3 (UGT1A3 [8]): inhibitor | inhibition of UGT1A4 (UGT1A4): inhibitor | inhibition of UGT1A1 (UGT1A1 [9]): inhibitor | inhibition of UGT2B7 (UGT2B7): inhibitor | photoclastogenicity in vitro [10]: photoclastogenic | phototoxicity in vitro [10]: phototoxic | drug concentrations at which photoclastogenic effects were observed ([10]; cytotoxic concentrations, UV 30 MED): ≥ 15000 ng/mL | photoclastogenicity in vitro at lower UV exposure ([10]; up to 58.4 mcg/mL, UV 15 MED): No evidence of in vitro photoclastogenicity | early embryonic development findings (female rats): Increased pre- and post-implantation loss and reduced fetal weight | photo-ocular toxicity (rats [11]): no evidence | liver finding (mice [12]): hepatocellular hypertrophy | renal tubular effects after 13 weeks (mice [12]): No similar effects were observed | renal tubular toxicity (mice [12]): Renal tubular toxicity was observed | duration of dosing after which cataracts were observed (mice [12]; 6 weeks): 6 weeks | duration of dosing after which cataracts were observed (mice [12]; 13 weeks): 13 weeks | platelet production (dogs [13]): does not stimulate platelet production | photo-ocular toxicity (mice [14]): no evidence | substrate for OATP1B1 (OATP1B1 [15]): not a substrate | mutagenicity/clastogenicity (rats [16]): not mutagenic or clastogenic | role of CYP2C8 in oxidative metabolism (CYP2C8 [17]): responsible; also recorded: involved | role of UGT1A3 in glucuronidation (UGT1A3 [18]): responsible | plasma protein binding (human plasma proteins): highly bound to plasma proteins | bound to human plasma proteins (human plasma proteins; in vitro): > 99% | plasma concentrations in pups versus dose (pregnant rats (F0); 0.8 and 2 times human clinical exposure (AUC), drug given to F0 dams): increased with dose | presence in plasma of offspring (F1) (pregnant rats (F0); after administration to F0 dams): detected | effects on maternal reproductive function or development of offspring (F1) (pregnant rats (F0); doses up to 2 times human clinical exposure (AUC)): no adverse effects | plasma exposure higher than in non-Asian subjects ([19]; East Asian subjects with ITP): approximately 70% | systemic exposure higher ([19]; healthy African-American subjects): approximately 40% | apparent clearance greater in males than females ([19]; population PK model, adjusted for body weight): 27% | mutagenicity/clastogenicity (bacterial): not mutagenic or clastogenic | embryofetal findings (pregnant rats): Decreased fetal weights and a slight increase in the presence of cervical ribs | major structural malformations (pregnant rats): no evidence of major structural malformations | exposure at the lowest dose relative to human clinical exposure based on AUC (mice [20]): 1.4 times | inhibition of OATP1B1 (OATP1B1 [21]): inhibitor | decrease of Cmax with food [22]: 65% | decrease of plasma AUC0-∞ with food [22]: approximately 59%
